Results: US8110348B2, “Methods and compositions for the diagnosis and treatment of schizophrenia” (priority 2005, dated 2012)
Entries after “also recorded” stand apart in the source; their conditions may differ.

Key:
hippocampal neurons = experiment: Primary and secondary dendrite number in cultured hippocampal neurons; type: cell-based, rat
Description: In this example, the effects of overexpression of NOS1AP protein in neurons were examined using primary cultures of hippocampal neurons. cDNAs encoding the full-length NOS1AP protein (SEQ ID No. 2) and NOS1AP-S protein (SEQ ID No. 4) were separately cloned into expression vectors and transfected along with GFP (to elucidate neuronal morphology) at 10 days in vitro, a time when dendrite outgrowth and branching is rapidly occurring. It was hypothesized that NOS1AP may affect dendrite number since the NMDA receptor has been implicated in playing a role in regulating dendrite number, and overexpression of NOS1AP is thought to disrupt NMDA receptor signaling. Two days after transfection, the neurons were fixed, and dedrites were counted as described in Akum et al., Nat Neurosci 2004 February; 7(2):145-52, 2004 and Chen et al., Mol Biol Cell 2005 November; 16(11):5103-14. […] Since dendrite morphology is crucial to interneuronal communication, the increases in short-form NOS1AP protein seen in patients suffering from neuropsychiatric disorders, such as schizophrenia and bipolar disorders, may result in altered dendrite morphology in the hippocampus, and perhaps the DLPFC.
Neuronal cultures were prepared from hippocampi of rat embryos at 18 day gestation as described previously (Firestein et al., 1999). The hippocampi were dissociated, and cells were plated on poly-D-lysine-coated glass coverslips (12 mm diameter) at a density of 1800 cells/mm^2. Cultures were maintained in Neurobasal media supplemented with B27, penicillin, streptomycin, and L-glutamine. Cells were grown for 5-21 days in vitro (DIV) and used for specific experiments as indicated below.
cDNAs encoding human NOS1AP and several mutant forms of human NOS1AP were cloned into the expression vector pCMV6-XL4 (Origene). These plasmids are referred to directly as NOS1AP (or NOS1AP mutants) without indicating the vector. In addition, the fusion proteins GFP-NOS1AP-L (GFP-NPL), GFP-NOS1AP-S (GFP-NPS), and GFP-NOS1AP-181-307 (GFP-NOS1AP-M, GFP-NPM) were constructed in the pEGFP-C1 vector (Clontech Inc.). Cultured hippocampal neurons were transfected with the appropriate cDNA constructs as follows. Neurons were transfected on DIV 10 using […] following the manufacturer's protocol (Qiagen Inc.). Neurons were transfected on DIV 2, 5, or 7 using LIPOFECTAMINE-2000 following the manufacturer's protocol (Invitrogen Inc.). The Amaxa Nucleofector kit for Rat Neurons (Amaxa Inc., kit VPG-1003) was used to transfect newly dissected neurons (DIV 0) before plating.
Neurons were fixed in 4% paraformaldehyde in PBS for 30 minutes and then incubated in blocking solution (PBS containing 0.1% Triton X-100, 2% normal goat serum, and 0.02% sodium azide) for 1 h. All antibodies used were diluted in blocking solution. For GFP and NOS1AP or GFP and HA double immunostaining, dilutions of 1:1000 for rat anti-GFP and 1:500 for rabbit anti-NOS1AP, or 1:500 for goat anti-NOS1AP, or 1:1000 for mouse anti-HA (CRP Inc.) were used. […] Labeled cells were visualized by immunofluorescence on an Olympus Optical (Tokyo, Japan) IX50 microscope with a Cooke Sensicam charge-coupled device cooled camera fluorescence imaging system and Image Pro software (Media Cybernetics, Silver Spring, Md.).
Primary and secondary dendrite numbers were counted by hand with the experimenter blinded to the conditions (Akum et al., 2004). Pictures of neurons were contrast-enhanced and the numbers of primary and secondary dendrites for each neuron were recorded. […]

NOS1AP = experiment: Knockdown of endogenous NOS1AP protein, immunofluorescence intensity in primary dendrites; type: cell-based, rat; settings: hippocampal neurons transfected DIV 10, fixed DIV 12 (48 hours)
Description: A) Hippocampal neurons were transfected with either pSUPER-scramble shRNA or pSUPER-NOS1AP shRNA at DIV10 and fixed at DIV12. B) Quantification of primary dendrites shown. C) Hippocampal neurons transfected with the same vectors as in A at DIV10 and fixed and immunostained for NOS1AP at DIV12. Zoomed inset indicates a representative region of primary dendrite showing corresponding fluorescence intensities of anti-NOS1AP. D) Quantification of NOS1AP levels in primary dendrite regions, as represented by normalized (total intensity/area) fluorescence intensity levels. *p<0.05 by Student's t-test.
A shRNA was constructed to knock down NOS1AP-L with the sequence 5′-[…]-3′ (SEQ ID NO: 22; position 790 of NM_138922) using the pSUPER vector. The resulting siRNA is specific to the long isoform of NOS1AP. […] Importantly, primary dendrite number increases by 67% when NOS1AP is knocked down (FIGS. 16A and B).

shRNA against NOS1AP-L: shRNA to knock down NOS1AP-L, sequence 5′-GCAATATCTTCAGATGCAA-3′ (SEQ ID NO: 22), in the pSUPER vector
increase in primary dendrite number (hippocampal neurons; NOS1AP knocked down, DIV 10-12, 48 hours, vs scramble shRNA): 67%
decrease in NOS1AP expression (knockdown of endogenous NOS1AP protein) (NOS1AP): 40%
decrease in NOS1AP expression (knockdown of endogenous NOS1AP protein) (NOS1AP; listed as SEQ ID NO: 22): 40%
decrease in NOS1AP expression (knockdown of endogenous NOS1AP protein) (NOS1AP; listed as shRNA Against NOS1AP Coding Sequence (Position 398)): Approximately 45%

COC(=O)[C@@H](N)CCCNC(=N)N[N+](=O)[O-] [L-NAME, N(ω)-nitro-L-arginine-methyl ester]
difference in secondary dendrite number, NOS1AP-Long alone vs with L-NAME (hippocampal neurons; 500 μM L-NAME, FIG. 10C): smaller, yet the distinction was still clear
effect on NOS1AP-Long effects on dendrite branching (hippocampal neurons; L-NAME 500 μM (FIG. 10 legend prints 500 nM) added right after transfection DIV 10, fixed DIV 12): partial reduction of NOS1AP-Long effects; also recorded: reduced NOS1AP-Long (CP-L) activity

N[C@@H](CCCP(=O)(O)O)C(=O)O [APV]
additional decrease in dendrite branching (hippocampal neurons; NOS1AP-L transfected neurons treated with APV): does not result in any additional decrease
drop in primary dendrite branching (hippocampal neurons; control cells transfected with GFP alone, dosage of APV expected to fully block NMDA receptor function): approximately 25%
